Assay results: article PMC3322948, “Phase I first-in-human study of TAK-285, a novel investigational dual HER2/EGFR inhibitor, in cancer patients” (British Journal of Cancer, 2012)
Like-named read-outs stand apart in the source and are kept apart here.

Experiments:
[1] = test system: EGFR; settings: biochemical; ref Aertgeerts et al, 2011; read-out: 50% inhibition concentration, EGFR phosphorylation; cited from earlier work
[2] = set-up: method as in Shell et al, 2008; settings: non-clinical; ref Shell et al, 2008; cited from earlier work
[3] = test system: solid tumours; experiment: Antitumour activity by RECIST in patients; format: in vivo, human (Japanese patients)
Protocol: The primary study endpoints were to determine the MTD as well as PK profiles of TAK-285 and its metabolite, M-I (data on file, Takeda Pharmaceutical Company Limited). The secondary endpoints were objective response rate (complete response (CR) and partial response (PR)), disease control rate (CR, PR and stable disease (SD), for at least 12 weeks), and time to tumour progression, defined as the time from the first dose of TAK-285 until disease progression or death. Tumour response was assessed every 4 weeks by RECIST version 1.0 ([Therasse et al, 2000]).

[4] = Plasma pharmacokinetics after oral TAK-285 (LC-MS/MS, noncompartmental); format: in vivo, human (Japanese patients); settings: for Cmax / half-life / Tmax / AUC(0-inf) / AUC: human, plasma, oral; for Tmax: median (range); for AUC: read-out: AUC0–tau
Protocol: (§1) In the dose escalation cohort, plasma samples for PK analysis were collected at predose and up to 72 h after single dose administration and on day 21 after repeated administration of TAK-285. Urine samples were also collected up to 24-h postdose. In the repeated administration cohort, plasma samples for PK analysis were collected at predose and up to 12-h postdose on days 1 and 28. Urine samples were also collected up to 12-h postdose each day. Concentrations of TAK-285 and M-I in plasma and urine were determined using validated liquid chromatography tandem mass spectrometry (LC-MS/MS) methods. The plasma and urine samples were treated by liquid–liquid extraction and subjected to LC-MS/MS equipped with a reversed-phase column. The lower limit of quantification for both TAK-285 and M-I was 0.2 ng ml^–1 in plasma and 2 ng ml^–1 in urine when 50 μl of the plasma sample and 55 μl of the urine sample (containing 5 μl of Tween 80 solution) were analysed. Tween 80 solution was added to the urine sample to prevent the adsorption of analytes onto the sample containers. The accuracy of the plasma assay (percentage deviation from nominal) ranged from −10.8 to 11.0% for TAK-285, and from −14.0 to 13.8% for M-I. […] Pharmacokinetic parameters of TAK-285 and M-I were estimated for each patient using noncompartmental methods with Phoenix WinNonlin Version 6.1 (Pharsight, Mountain View, CA, USA).

[5] = test system: circulating tumour cells; experiment: Circulating tumour cell enumeration (CellSearch); format: in vivo, human (Japanese patients)
Protocol: At screening and on day 15 after the start of repeated administration, 20 ml of peripheral blood was obtained and divided into two 10 ml exclusive use containers (CellSave tubes) filled with 300 μl of preservative solution (4.6% Na-ethylenediaminetetraacetate, 36% cell preservative, 0.36% polyethylene glycol and 0.4% inert ingredients). The samples were stored at room temperature and processed within 72 h after sampling. The CellSearch System (Veridex LLC, Raritan, NJ, USA) was used for the isolation and enumeration of circulating tumour cells (CTCs), which were defined as nucleated cells lacking cluster of differentiation 45 and expressing cytokeratin.

[6] = Urinary excretion after oral TAK-285; format: in vivo, human (Japanese patients); settings: up to 12- or 24-h postdose following single or multiple dosing
Protocol: as §1

[7] = test system: HER2; settings: biochemical; ref Aertgeerts et al, 2011; read-out: 50% inhibition concentration, HER2 phosphorylation; cited from earlier work
[8] = test system: HER2- or EGFR-overexpressing human tumour xenografts such as BT-474, 4-1 ST and A431; set-up: method as in Iwahara et al, 2008; settings: orally administered; ref Iwahara et al, 2008; cited from earlier work
[9] = rodent and primate; non-clinical studies; cited from earlier work
[10] = 50 mg, single dosing, 50 mg b.i.d., dose escalation cohort, mean (s.d.)
[11] = 50 mg, single dosing, 50 mg q.d., dose escalation cohort, mean (s.d.)
[12] = 100 mg, single dosing, 100 mg b.i.d., dose escalation cohort, mean (s.d.)
[13] = 200 mg, single dosing, 200 mg b.i.d., dose escalation cohort, mean (s.d.)
[14] = 300 mg, single dosing, 300 mg b.i.d., repeated administration cohort, mean (s.d.)
[15] = multiple versus single dosing, across doses

CC(C)(O)CC(=O)NCCn1ccc2ncnc(Nc3ccc(Oc4cccc(C(F)(F)F)c4)c(Cl)c3)c21 [TAK-285]
cardiac risks [2]: potentially no exhibition of elevated cardiac risks
disease control rate ([3]; 1 of 26 patients): 3.8%
objective response rate ([3]; 1 of 26 patients): 3.8%
median time to tumour progression ([3]; 26 patients): 58 days
patients showing reduction in tumour size ([3]; dose escalation cohort): one
patients achieving partial response (PR), percent ([3]; of 26 patients): 3.8%
patients achieving partial response (PR), number ([3]; parotid cancer, 300 mg b.i.d.): One
patients showing reduction in tumour size ([3]; repeated administration cohort, of six patients): three
Cmax ([4]; 50 mg b.i.d., multiple dosing day 21, 50 mg b.i.d., dose escalation cohort, mean (s.d.)): 358 ng/mL
half-life ([4]; 50 mg b.i.d., multiple dosing day 21, 50 mg b.i.d., dose escalation cohort, mean (s.d.), read-out: t1/2 (converted)): 7.49 h
Tmax ([4]; 50 mg b.i.d., multiple dosing day 21, 50 mg b.i.d., dose escalation cohort): 2.05 h
Cmax ([4]; 50 mg q.d., multiple dosing day 21, 50 mg q.d., dose escalation cohort, mean (s.d.)): 260 ng/mL
half-life ([4]; 50 mg q.d., multiple dosing day 21, 50 mg q.d., dose escalation cohort, mean (s.d.), read-out: t1/2 (converted)): 8.69 h
Tmax ([4]; 50 mg q.d., multiple dosing day 21, 50 mg q.d., dose escalation cohort): 2 h
AUC(0-inf) [4, 10]: 1970 ng·h/mL
Cmax [4, 10]: 234 ng/mL
half-life ([4]; 50 mg, single dosing, 50 mg b.i.d., dose escalation cohort, mean (s.d.), read-out: t1/2 (converted)): 6.45 h
Tmax ([4]; 50 mg, single dosing, 50 mg b.i.d., dose escalation cohort): 1 h
AUC(0-inf) [4, 11]: 1730 ng·h/mL
Cmax [4, 11]: 214 ng/mL
half-life ([4]; 50 mg, single dosing, 50 mg q.d., dose escalation cohort, mean (s.d.), read-out: t1/2 (converted)): 7.27 h
Tmax ([4]; 50 mg, single dosing, 50 mg q.d., dose escalation cohort): 1.49 h
Cmax ([4]; 100 mg b.i.d., multiple dosing day 21, 100 mg b.i.d., dose escalation cohort, mean (s.d.)): 774 ng/mL
half-life ([4]; 100 mg b.i.d., multiple dosing day 21, 100 mg b.i.d., dose escalation cohort, mean (s.d.), read-out: t1/2 (converted)): 7.79 h
Tmax ([4]; 100 mg b.i.d., multiple dosing day 21, 100 mg b.i.d., dose escalation cohort): 2 h
AUC(0-inf) [4, 12]: 2820 ng·h/mL
Cmax [4, 12]: 379 ng/mL
half-life ([4]; 100 mg, single dosing, 100 mg b.i.d., dose escalation cohort, mean (s.d.), read-out: t1/2 (converted)): 9.43 h
Tmax ([4]; 100 mg, single dosing, 100 mg b.i.d., dose escalation cohort): 2 h
Cmax ([4]; 200 mg b.i.d., multiple dosing day 21, 200 mg b.i.d., dose escalation cohort, mean (s.d.)): 2420 ng/mL
half-life ([4]; 200 mg b.i.d., multiple dosing day 21, 200 mg b.i.d., dose escalation cohort, mean (s.d.), read-out: t1/2 (converted)): 6.95 h
Tmax ([4]; 200 mg b.i.d., multiple dosing day 21, 200 mg b.i.d., dose escalation cohort): 2 h
AUC(0-inf) [4, 13]: 9530 ng·h/mL
Cmax [4, 13]: 965 ng/mL
half-life ([4]; 200 mg, single dosing, 200 mg b.i.d., dose escalation cohort, mean (s.d.), read-out: t1/2 (converted)): 6.57 h
Tmax ([4]; 200 mg, single dosing, 200 mg b.i.d., dose escalation cohort): 2.48 h
Cmax ([4]; 300 mg b.i.d., multiple dosing day 21, 300 mg b.i.d., dose escalation cohort, mean (s.d.)): 3700 ng/mL
half-life ([4]; 300 mg b.i.d., multiple dosing day 21, 300 mg b.i.d., dose escalation cohort, mean (s.d.), read-out: t1/2 (converted)): 8.25 h
Tmax ([4]; 300 mg b.i.d., multiple dosing day 21, 300 mg b.i.d., dose escalation cohort): 2 h
Cmax ([4]; 300 mg, multiple dosing day 28, 300 mg b.i.d., repeated administration cohort, mean (s.d.)): 2810 ng/mL
half-life ([4]; 300 mg, multiple dosing day 28, 300 mg b.i.d., repeated administration cohort, mean (s.d.), read-out: t1/2 (converted)): 11.1 h
Tmax ([4]; 300 mg, multiple dosing day 28, 300 mg b.i.d., repeated administration cohort): 2.97 h
Cmax ([4]; 300 mg, single dosing, 300 mg b.i.d., dose escalation cohort, mean (s.d.)): 1350 ng/mL
half-life ([4]; 300 mg, single dosing, 300 mg b.i.d., dose escalation cohort, mean (s.d.), read-out: t1/2 (converted)): 7.5 h
Tmax ([4]; 300 mg, single dosing, 300 mg b.i.d., dose escalation cohort): 2 h
AUC(0-inf) [4, 14]: 9210 ng·h/mL
Cmax [4, 14]: 983 ng/mL
half-life ([4]; 300 mg, single dosing, 300 mg b.i.d., repeated administration cohort, mean (s.d.), read-out: t1/2 (converted)): 6.1 h
Tmax ([4]; 300 mg, single dosing, 300 mg b.i.d., repeated administration cohort): 2.03 h
half-life ([4]; at all doses, single dose, read-out: estimated terminal-phase half-life (t1/2)): 6 to 9 h
AUC ([4]; multiple dosing day 21, 50 mg b.i.d., dose escalation cohort, mean (s.d.)): 2720 ng·h/mL
AUC ([4]; multiple dosing day 21, 50 mg q.d., dose escalation cohort, mean (s.d.)): 2210 ng·h/mL
AUC ([4]; multiple dosing day 21, 100 mg b.i.d., dose escalation cohort, mean (s.d.)): 6090 ng·h/mL
circulating tumour cell (CTC) changes after treatment ([5]; screening versus cycle 1 day 15): did not show significant changes
patients with unfavourable baseline CTC count converted to favourable ([5]; seven patients with ⩾5 cells per 7.5 ml blood at baseline): none
IC50 [7]: 17 nM
xenograft growth [8]: effectively inhibited xenograft growth
tolerability in toxicity models [9]: well tolerated
